# How the values were obtained:
# [1] = biological target: Histamine H3 receptor (Homo sapiens, UniProt Q9Y5N1); assay: Binding affinity towards human Histamine H3 receptor using [3H]N-methyl-histamine as radioligand
# [2] = system: Caco-2; assay: Permeability was evaluated using Caco-2 cells; type: functional, cell-based; details: Homo sapiens
# [3] = Half-life was determined; type: ADME; details: human
# [4] = organism: Rattus norvegicus; assay: Compound was evaluated in a functional assay for determining rat pA2; details: read-out: pA2 (converted)
# [5] = system: SK-N-MC; assay: Compound was evaluated in a functional assay against […] cells stably transfected with the human H3 receptor; type: cell-based; details: read-out: pA2 (converted)
# Histamine H3 receptor, sequence (Q9Y5N1 whole entry): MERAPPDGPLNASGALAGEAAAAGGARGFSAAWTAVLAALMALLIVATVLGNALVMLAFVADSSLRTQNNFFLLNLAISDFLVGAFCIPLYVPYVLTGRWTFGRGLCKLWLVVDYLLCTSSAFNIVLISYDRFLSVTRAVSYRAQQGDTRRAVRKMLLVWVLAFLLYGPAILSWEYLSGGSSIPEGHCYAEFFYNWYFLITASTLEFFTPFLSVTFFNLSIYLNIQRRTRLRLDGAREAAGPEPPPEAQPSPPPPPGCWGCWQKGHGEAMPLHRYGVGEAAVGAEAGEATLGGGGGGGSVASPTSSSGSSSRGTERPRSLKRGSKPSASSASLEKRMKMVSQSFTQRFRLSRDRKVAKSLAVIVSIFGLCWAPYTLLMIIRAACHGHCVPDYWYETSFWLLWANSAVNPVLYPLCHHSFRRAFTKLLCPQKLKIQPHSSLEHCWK
Structure (SMILES),Ki [1],other results
c1ccc(-c2cc3ccccn3c2)c(OCCCN2CCCCC2)c1,236 nM,–
c1ccn2cc(-c3ccc(OCCCN4CCCCC4)cc3)cc2c1,13 nM,Papp [2]: 0.14 ×10⁻⁶ cm/s; half-life [3]: 10 min; Kb [4]: 19.5 nM; Kb [5]: 3.16 nM
c1ccc(CCc2c(-c3ccc(OCCCN4CCCCC4)cc3)cn3ccccc23)cc1,37 nM,–
CCc1c(-c2ccc(OCCCN3CCCCC3)cc2)cn2ccccc12,19 nM,–
c1ccn2nc(-c3ccc(OCCCN4CCCCC4)cc3)cc2c1,11 nM,–
c1ccc2[nH]c(-c3ccc(OCCCN4CCCCC4)cc3)cc2c1,47 nM,–
CS(=O)(=O)n1c(-c2ccc(OCCCN3CCCCC3)cc2)cc2ccccc21,16 nM,–
Cc1cc(OCCCN2CCCCC2)ccc1-c1cc2ccccn2c1,152 nM,–
Cc1c(-c2ccc(OCCCN3CCCCC3)cc2)cc2ccccn12,2 nM,half-life [3]: 54 min
Cc1cccn2cc(-c3ccc(OCCCN4CCCCC4)cc3)cc12,40 nM,–
Cc1cccc2cc(-c3ccc(OCCCN4CCCCC4)cc3)cn12,46 nM,–
Cc1c(-c2ccc(OCCCN3CCCCC3)cc2)cn2ccccc12,16 nM,–
c1ccc(-c2c(-c3ccc(OCCCN4CCCCC4)cc3)cn3ccccc23)cc1,40 nM,–
c1cc(OCCCN2CCCCC2)cc(-c2cc3ccccn3c2)c1,308 nM,–
Cc1ccn2cc(-c3ccc(OCCCN4CCCCC4)cc3)cc2c1,40 nM,–
Cc1ccc2cc(-c3ccc(OCCCN4CCCCC4)cc3)cn2c1,28 nM,–
Cc1cc(OCCCN2CCCCC2)ccc1-c1cn2ccccc2c1C,11 nM,–
CCc1c(-c2ccc(OCCCN3CCCCC3)cc2)cc2ccccn12,5 nM,–
